From paper PMC10064984, “Anti-cyclooxygenase, anti-glycation, and anti-skin aging effect of Dendrobium officinale flowers’ aqueous extract and its phytochemical validation in aging” (Frontiers in Immunology, 2023)
“And” between values parts separate entries of the source, which are not always exact repeats. Equal entries are not always repeated. Where two headings read alike, the source gives them in different places. Blank lines part the entries; values can stand above or below the molecule they belong to.

Legend:
[1] = Fluorescent AGEs formation in a BSA-fructose/glucose system; format: biochemical; details: for IC50: mean ± SD, n = 3, read-out: BSA-glycation IC50; for inhibition of fluorescent AGEs formation (BSA-抗糖化), single replicate: individual replicate; for inhibition of fluorescent AGEs formation (BSA-抗糖化), 平均 (mean): mean of 3 replicates
In short: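 BSA glycated in vitro with D-glucose and D-fructose while test samples, dissolved in DMSO:water (1:4), were present. Percent inhibition of fluorescent AGE formation calculated from fluorescence corrected for sample-only and BSA-free blanks; triplicate.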

[2] = Online UPLC-PDA-MS-ABTS·+ scavenging (postcolumn derivatisation); details: within DOF extract
Protocol: Online identification of antioxidant components of DOF extract was performed using a UPLC system (Milford, MA, USA) consisting of a Waters photodiode array detector and a Waters postcolumn derivatisation system supplying fresh ABTS solution (UPLC-PDA-QDa-ABTS). […] The detection wavelengths were set at 280 and 734 nm, and the injection volume of the sample was 10 μl.
To detect radical scavengers, the UPLC system was coupled with a Waters pump, which supplied freshly prepared ABTS·+ solution into a reaction coil (15 m, 0.25 mm ID) with a flow rate of 0.2 ml/min at 37°C. Negative peaks were recorded based on a decrease of absorbance at 729 nm after the reaction of individual compounds with the ABTS·+ radical. For preliminary identification of compounds, a Waters Acquity QDa mass detector in negative ionisation mode was connected in series to PDA with the following parameters: electrospray ion source; cone voltage, 15 V; atomiser, N2; and scanning range, 100–800 m/z.

COX-2 = target: T1, COX-2 (Homo sapiens, UniProt P35354); assay: Anti-COX-2 assay (COX-2 Inhibitor Screening Kit); format: biochemical
T1 construct: purchased Beyotime S0168
T1 sequence (P35354 18-604): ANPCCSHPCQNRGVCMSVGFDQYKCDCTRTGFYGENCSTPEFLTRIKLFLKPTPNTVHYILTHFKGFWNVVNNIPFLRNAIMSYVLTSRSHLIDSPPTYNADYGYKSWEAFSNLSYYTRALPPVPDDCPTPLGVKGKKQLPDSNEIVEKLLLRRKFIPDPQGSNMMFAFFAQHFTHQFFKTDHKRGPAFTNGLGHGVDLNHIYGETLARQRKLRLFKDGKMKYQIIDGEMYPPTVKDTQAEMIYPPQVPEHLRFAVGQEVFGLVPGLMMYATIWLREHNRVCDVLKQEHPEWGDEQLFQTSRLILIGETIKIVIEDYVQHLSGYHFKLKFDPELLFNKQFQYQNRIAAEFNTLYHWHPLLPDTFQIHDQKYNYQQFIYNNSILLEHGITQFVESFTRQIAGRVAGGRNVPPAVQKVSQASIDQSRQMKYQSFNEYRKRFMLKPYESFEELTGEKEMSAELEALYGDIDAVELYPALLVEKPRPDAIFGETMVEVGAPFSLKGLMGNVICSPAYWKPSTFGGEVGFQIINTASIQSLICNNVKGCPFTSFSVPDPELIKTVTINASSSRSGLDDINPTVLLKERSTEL

[3] = ABTS·+ decolourisation capacity; format: biochemical; details: mean ± SD, n = 3
In short: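 ABTS·+ working solution in 0.2 M phosphate buffer, pH 7.4, was adjusted to A729 0.8 ± 0.05, and 100 μl was mixed with 200 μl sample; absorbance was read at 729 nm after 10 min, in triplicate. Inhibition was taken relative to a phosphate-buffer control, and IC50 was obtained graphically from dose-inhibition curves.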

[4] = FRAP total antioxidant capacity; format: biochemical;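 also: colourimetric FRAP kit assay read as absorbance in 96-well plates, values as mM FeSO4 via standard curve, EC1 being sample concentration matching 1.0 mmol/L FeSO4, Trolox positive control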
DPPH· scavenging = format: biochemical; details: mean ± SD, n = 3
[5] = lower part of sheet (compound series)

- IC50 [1]: 222 ± 13.5 µM
- COX-2 inhibition (in words) (COX-2): great COX-2 inhibition
- inhibition at 3.125 µM (COX-2; 3.125 μM, single replicates): 23.1%
- COX-2 inhibition (COX-2; 3.125 μM, single replicates, listed as T3, 3.125 µM): 13.73% and 18.58%
- inhibition at 6.25 µM (COX-2; 6.25 μM, single replicates): 42.8%
- COX-2 inhibition (COX-2; 6.25 μM, single replicates, listed as T3, 6.25 µM): 37.16%
- COX-2 inhibition (COX-2; 12.5 μM, single replicates, listed as T3, 12.5 µM): 68.24% and 51.05% and 71.69%
- inhibition at 25 µM (COX-2; 25 μM, single replicates): 78%
- COX-2 inhibition (COX-2; 25 μM, single replicates, listed as T3, 25 µM): 72.08% and 76.61%
- inhibition at 50 µM (COX-2; 50 μM, single replicates): 81.2%
- COX-2 inhibition (COX-2; 50 μM, single replicates, listed as T3, 50 µM): 77.16% and 78.42%
- inhibition at 100 µM (COX-2; 100 μM, single replicates): 81.5%
- COX-2 inhibition (COX-2; 100 μM, single replicates, listed as T3, 100 µM): 79.28% and 81.06%
- inhibition at 200 µM (COX-2; 200 μM, single replicates): 84.3%
- COX-2 inhibition (COX-2; 200 μM, single replicates, listed as T3, 200 µM): 81.14% and 83.16%
- IC50 [3]: 33.1 ± 0.37 µM
- IC50 (DPPH· scavenging): 43.3 ± 1.75 µM
Compound: C[C@@H]1O[C@@H](OC[C@H]2O[C@@H](Oc3c(-c4ccc(O)c(O)c4)oc4cc(O)cc(O)c4c3=O)[C@H](O)[C@@H](O)[C@@H]2O)[C@H](O)[C@H](O)[C@H]1O [compound 24, Rutin]
- online ABTS radical scavenging (size of negative peaks at 734 nm) [2]: strongest ABTS radical scavengers
- FRAP EC1 [4, 5]: 205.0 ± 12.2 µM
- FRAP EC1 ([4]; mean ± SD, n = 3): 205.0 ± 12.2 µM

- IC50 [1]: 288 ± 17.9 µM
- COX-2 inhibition (in words) (COX-2): great COX-2 inhibition
- inhibition at 3.125 µM (COX-2; 3.125 μM, single replicates): 24.6%
- COX-2 inhibition (COX-2; 3.125 μM, single replicates, listed as T11, 3.125 µM): 20.59% and 27.90%
- COX-2 inhibition (COX-2; 6.25 μM, single replicates, listed as T11, 6.25 µM): 14.74% and 29.06% and 32.72%
- inhibition at 12.5 µM (COX-2; 12.5 μM, single replicates): 58.4%
- COX-2 inhibition (COX-2; 12.5 μM, single replicates, listed as T11, 12.5 µM): 54.43% and 66.15%
- inhibition at 25 µM (COX-2; 25 μM, single replicates): 71.8%
- COX-2 inhibition (COX-2; 25 μM, single replicates, listed as T11, 25 µM): 72.43% and 76.32%
- inhibition at 50 µM (COX-2; 50 μM, single replicates): 73.1%
- COX-2 inhibition (COX-2; 50 μM, single replicates, listed as T11, 50 µM): 74.00% and 78.80%
- inhibition at 100 µM (COX-2; 100 μM, single replicates): 77.6%
- COX-2 inhibition (COX-2; 100 μM, single replicates, listed as T11, 100 µM): 75.00% and 79.64%
- inhibition at 200 µM (COX-2; 200 μM, single replicates): 75.5%
- COX-2 inhibition (COX-2; 200 μM, single replicates, listed as T11, 200 µM): 78.98% and 87.56%
- IC50 (COX-2; mean ± SD, n = 3, nd, not detected, read-out: COX-2 IC50): 12.5 ± 2.9 µM
- IC50 (COX-2; supplement sheet COX, read-out: COX-2 IC50, single replicate): 13.5 µM and 9.23 µM and 14.8 µM
- IC50 [3]: 28.4 ± 0.47 µM
- IC50 (DPPH· scavenging): 24.7 ± 0.96 µM
Compound: O=C(O)CC(=O)OCC1OC(Oc2c(-c3ccc(O)c(O)c3)oc3cc(O)cc(O)c3c2=O)C(O)C(O)C1O (centres unmarked) [compound 27, Quercetin 3-O-(6″-malonyl-glucoside)]
- inhibition of fluorescent AGEs formation (BSA-抗糖化), single replicate ([1]; 15.625 µM, listed as T11, 15.625 µM): 10.51% and 15.35% and 23.11%
- inhibition of fluorescent AGEs formation (BSA-抗糖化), 平均 (mean) ([1]; 15.625 µM): 16.32%
- inhibition of fluorescent AGEs formation (BSA-抗糖化), single replicate ([1]; 31.25 µM, listed as T11, 31.25 µM): 5.08% and 5.86% and 10.67%
- inhibition of fluorescent AGEs formation (BSA-抗糖化), 平均 (mean) ([1]; 31.25 µM): 7.20%
- inhibition of fluorescent AGEs formation (BSA-抗糖化), single replicate ([1]; 62.5 µM, listed as T11, 62.5 µM): 17.13% and 15.89% and 16.80%
- inhibition of fluorescent AGEs formation (BSA-抗糖化), 平均 (mean) ([1]; 62.5 µM): 16.61%
- inhibition of fluorescent AGEs formation (BSA-抗糖化), single replicate ([1]; 125 µM, listed as T11, 125 µM): 26.98% and 29.78% and 30.07%
- inhibition of fluorescent AGEs formation (BSA-抗糖化), 平均 (mean) ([1]; 125 µM): 28.94%
- inhibition of fluorescent AGEs formation (BSA-抗糖化), single replicate ([1]; 250 µM, listed as T11, 250 µM): 45.50% and 47.09% and 47.76%
- inhibition of fluorescent AGEs formation (BSA-抗糖化), 平均 (mean) ([1]; 250 µM): 46.78%
- inhibition of fluorescent AGEs formation (BSA-抗糖化), single replicate ([1]; 500 µM, listed as T11, 500 µM): 61.62% and 62.32% and 63.30%
- inhibition of fluorescent AGEs formation (BSA-抗糖化), 平均 (mean) ([1]; 500 µM): 62.41%
- inhibition of fluorescent AGEs formation (BSA-抗糖化), single replicate ([1]; 1000 µM, listed as T11, 1000 µM): 77.56% and 77.94% and 77.85%
- inhibition of fluorescent AGEs formation (BSA-抗糖化), 平均 (mean) ([1]; 1000 µM): 77.78%
- inhibition of fluorescent AGEs formation (BSA-抗糖化), single replicate ([1]; 2000 µM, listed as T11, 2000 µM): 88.53% and 88.63% and 88.83%
- inhibition of fluorescent AGEs formation (BSA-抗糖化), 平均 (mean) ([1]; 2000 µM): 88.66%
- inhibition of fluorescent AGEs formation (BSA-抗糖化), single replicate ([1]; 4000 µM (series head 'T9 4000µM', 2-fold dilutions), listed as T11): 94.35% and 94.74% and 94.79%
- inhibition of fluorescent AGEs formation (BSA-抗糖化), 平均 (mean) ([1]; 4000 µM): 94.62%
- online ABTS radical scavenging (size of negative peaks at 734 nm) [2]: strongest ABTS radical scavengers
- FRAP EC1 [4, 5]: 826.7 ± 98.5 µM
